Reference: PMC10126245 (Frontiers in Cellular and Infection Microbiology, 2023)
Values after ≈ are worked out from the molar mass of the structure shown. Values joined by “and” are separate entries in the source; they are usually repeats but may differ in a detail not shown here. Equal values may be shown once.

What was measured:
[1] = test system: CT-induced cell elongation in CHO cell line; format: cell-based
[2] = test system: CFCF induced histopathological changes in ileal loops; set-up: species or system Swiss albino mice; details: mouse, in vivo
in vitro = details: Chinese hamster
[3] = test system: CFCF-induced cAMP levels in ligated-ileal loops; set-up: species or system Swiss albino mice; details: mouse, in vivo
CHO cell line [4] = details: Chinese hamster
CHO cell line [5] = assay: cells; details: Cricetulus griseus, 24 h
[6] = target: CT binding to GM1 receptor (Vibrio cholerae serotype O1, UniProt P01556)
Chain of CT binding to GM1 receptor (P01556 22-124 limits assumed): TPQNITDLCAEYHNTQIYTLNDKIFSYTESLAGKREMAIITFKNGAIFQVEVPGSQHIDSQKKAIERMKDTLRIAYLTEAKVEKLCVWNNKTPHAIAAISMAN

[7] = test system: CT-induced cAMP levels in CHO cell line; format: cell-based
[8] = test system: CFCF-induced fluid accumulation in ligated-ileal loops; set-up: species or system Swiss albino mice; details: mouse, in vivo
CT-induced cAMP = details: 10µg/mL; cited from earlier work
CT binding to GM1 = details: 50mM; cited from earlier work
[9] = test system: FITC-CTB binding to Vero cells; details: 10µg/ml; cited from earlier work

O=c1oc2c(O)c(O)cc3c(=O)oc4c(O)c(O)cc1c4c23 [Ellagic acid]
Protection against CT-induced cell elongation [1]: greater protective activities | Protection against CFCF induced histopathological changes (inflammation, edema) [2]: substantial protective activity | viability (in vitro): 93.2% | cAMP levels in ligated-ileal tissues [3]: 0.62% and 1.31% | NC1 (non-cytotoxic concentration) (CHO cell line [4]): 30 µg/mL | NC2 (non-cytotoxic concentration) (CHO cell line [4]): 15 µg/mL | viability (CHO cell line [4]): 97.5% | IC50 (CHO cell line [5]): 116 ± 9.6 µg/mL (≈ 382 µM) | Binding inhibition of CT to GM1 [6]: > 50% | Binding inhibition percentage (BI%) [6]: 97% | Bound percent (B%) of cAMP [7]: 82% and 81% | Mean W/L ratio [8]: 0.091 and 0.094 | Mean weight/length (W/L) ratio of ligated-ileal loops [8]: 0.091 g/cm and 0.094 g/cm

O=C(/C=C/c1ccc(O)c(O)c1)O[C@@H]1C[C@](O)(C(=O)O)C[C@@H](O)[C@H]1O [Chlorogenic acid]
Protection against CT-induced cell elongation [1]: greater protective activities | Protection against CFCF induced histopathological changes (inflammation, edema) [2]: substantial protective activity | viability (in vitro): 90.5% | cAMP levels in ligated-ileal tissues [3]: 1.18% and 1.89% | NC1 (non-cytotoxic concentration) (CHO cell line [4]): 100 µg/mL | NC2 (non-cytotoxic concentration) (CHO cell line [4]): 50 µg/mL | viability (CHO cell line [4]): 97.2% | IC50 (CHO cell line [5]): 398 ± 5.4 µg/mL (≈ 1120 µM) | Binding inhibition of CT to GM1 [6]: > 50% | Binding inhibition percentage (BI%) [6]: 92% and 81% | Bound percent (B%) of cAMP [7]: 81% and 78% | Mean W/L ratio [8]: 0.132 and 0.176 | Mean weight/length (W/L) ratio of ligated-ileal loops [8]: 0.132 g/cm and 0.176 g/cm

C[C@@H]1O[C@@H](OC[C@H]2O[C@@H](Oc3c(-c4ccc(O)c(O)c4)oc4cc(O)cc(O)c4c3=O)[C@H](O)[C@@H](O)[C@@H]2O)[C@H](O)[C@H](O)[C@H]1O [Rutin]
viability (in vitro): 92.4% | NC1 (non-cytotoxic concentration) (CHO cell line [4]): 70 µg/mL | NC2 (non-cytotoxic concentration) (CHO cell line [4]): 35 µg/mL | viability (CHO cell line [4]): 97.6% | IC50 (CHO cell line [5]): 287 ± 6.9 µg/mL (≈ 471 µM) | Binding inhibition percentage (BI%) [6]: 9% and 2% | Bound percent (B%) of cAMP [7]: 53% and 44%

O=C(CCc1ccc(O)cc1)c1c(O)cc(O)cc1O[C@@H]1O[C@H](CO)[C@@H](O)[C@H](O)[C@H]1O [Phloridzin]
viability (in vitro): 94.8% | NC1 (non-cytotoxic concentration) (CHO cell line [4]): 75 µg/mL | NC2 (non-cytotoxic concentration) (CHO cell line [4]): 37.5 µg/mL | viability (CHO cell line [4]): 97.6% | IC50 (CHO cell line [5]): 298 ± 3.9 µg/mL (≈ 683 µM) | Binding inhibition of CT to GM1 [6]: > 50% | Bound percent (B%) of cAMP [7]: 71% and 50%

O=C(O)c1cc(O)c(O)c(O)c1 [Gallic acid, reference compound]
Protection against CFCF induced histopathological changes (inflammation, edema) [2]: indistinct amelioration | viability (in vitro): 93.5% | Decrease in cAMP compared to CT control (CT-induced cAMP): 76% | cAMP levels in ligated-ileal tissues [3]: 1.79% and 3.39% | NC1 (non-cytotoxic concentration) (CHO cell line [4]): 25 µg/mL | NC2 (non-cytotoxic concentration) (CHO cell line [4]): 12.5 µg/mL | viability (CHO cell line [4]): 97.9% | IC50 (CHO cell line [5]): 103 ± 1.1 µg/mL (≈ 604 µM) | Bound percent (B%) of cAMP [7]: 80% and 60% | Mean W/L ratio [8]: 0.222 and 0.188 | Mean weight/length (W/L) ratio of ligated-ileal loops [8]: 0.188 g/cm | Binding inhibition of CT to GM1 (CT binding to GM1): 40% | Inhibition of binding of FITC-CTB to Vero cells [9]: 23%

C[C@@H]1O[C@@H](Oc2c(-c3ccc(O)c(O)c3)oc3cc(O)cc(O)c3c2=O)[C@H](O)[C@H](O)[C@H]1O [Quercetrin, reference compound]
viability (in vitro): 91% | Decrease in cAMP compared to CT control (CT-induced cAMP): 59% | NC1 (non-cytotoxic concentration) (CHO cell line [4]): 60 µg/mL | NC2 (non-cytotoxic concentration) (CHO cell line [4]): 30 µg/mL | viability (CHO cell line [4]): 96.3% | IC50 (CHO cell line [5]): 234 ± 3.7 µg/mL (≈ 521 µM) | Bound percent (B%) of cAMP [7]: 66% and 47% | Inhibition of binding of FITC-CTB to Vero cells [9]: 20%
